Entries after “also recorded” stand apart in the source; their conditions may differ. Read-outs that look alike come from different tables or passages of the source. Marks after values point to notes of the source that are not given here.
Experiments:
[1] = test system: 60 human tumor cell lines; assay: NCI screening of antitumor activity in vitro in 60 human tumor cell lines; format: cell-based
Excerpt: The experimental results refer to FIGS. 1-12.

[2] = test system: Human breast cancer MCF-7; assay: Xenograft tumor nude mice screening, MCF-7; format: in vivo, BALB/c nu mice
Experimental: (§1) Certificate NO. SCXK (BeiJing) 2005-0013. • Cell lines: The tumor cell lines were passaged and cultured by our Lab, some of them was obtained from ATCC. • The tumor cell lines included: Human breast cancer MX-1 and MCF-7. • Human ovarian cancer A2780, and clear Human ovarian cell cancer ES-2, • Human lung cancer H1975 and A549. Experiment Method: • 1. […] The administration dose and treatment progress was determined based from the preliminary experiments, which had solid effects and the shortest treatment period—the dose of 30 mg/kg/day, and the administration duration time of every lot experiment was not more than 12 days.

Human lung cancer A549 = assay: Xenograft tumor nude mice screening, A549; format: in vivo, BALB/c nu mice
Experimental: as §1

Human lung cancer H1975 = assay: Xenograft tumor nude mice screening, H1975; format: in vivo, BALB/c nu mice; details: 30 mg/kg × 12, i.p.
Experimental: as §1

Human breast cancer MX-1 = assay: Xenograft tumor nude mice screening, MX-1; format: in vivo, BALB/c nu mice; details: 30 mg/kg i.p., 10~12 times
Experimental: as §1

[3] = test system: Human ovarian cancer A2780; assay: Xenograft tumor nude mice screening, A2780; format: in vivo, BALB/c nu mice; details: 30 mg/kg i.p., 10~12 times
Experimental: as §1

[4] = test system: clear Human ovarian cell cancer ES-2; assay: Xenograft tumor nude mice screening, ES-2; format: in vivo, BALB/c nu mice; details: 30 mg/kg i.p., 10~12 times
Experimental: as §1

[5] = test system: Mice breast cancer cell line (4T1, ATCC CRL2539)
Experimental: Mice breast cancer cell line (4T1, ATCC CRL2539) was a generous gift from Prof. Wei Liang of the Institute of biophysics, Chinese Academy of Sciences. The cell was cultured in the 1640 medium (Gibco) containing 10% fetal bovine serum (FBS), 1% glutamine and 1% penicillin.
4T1 cells in logarithmic phase were collected and the concentration was adjusted to 2×10^6/mL. 4T1 tumors were introduced in female BALB/c mice by injecting subcutaneously into the fourth fat pad area of the right abdominal mammary gland with the dose of 2×10^5/0.1 mL. […] From the 9th day after implantation, tumor growth was measured every 2 days with vernier calipers for determining the long diameter and short diameter of tumor. Tumor volume was calculated by the formula (½)×long diameter×short diameter^2. Drug was withdrawn on the twenty-eight days after the implantation, all mice were then sacrificed and the body weight were measured. The tumors, spleen and lung were removed and weighed. The lungs were fixed in Bouin's fixative for 24 h. The numbers of lung metastasis nodule were counted, the statistics was evaluated using Mann-Whitney U test.

lewis lung cancer [6] = details: 10 mg/kg i.p. once daily
Experimental: C57Bl/6 mice with lewis lung cancer were sacrificed and the tumor was removed. The tumor cell suspension (5×10^6 cell/mL) was prepared in a sterile condition. The suspension (0.2 mL/mice, 1×10^6 tumor cell) was inoculated subcutaneously into the axillary of 24 C57Bl/6 mice. […] From the 7th day after the implantation, the long diameter and short diameter of tumor was measured every 2 days. Tumor volume was calculated by the formula (½)×long diameter×short diameter^2. Drug was withdrawn on the eighteenth day after the implantation. All mice were then sacrificed and the body weight was measured. The tumors, spleen and lung were removed and weighed. The lungs were fixed in Bouin's fixative for 24 h. The numbers of lung metastasis nodule were counted, and the statistics was evaluated by Mann-Whitney U test.

lewis lung cancer [7] = assay: Anti-artificial metastasis on Lewis lung cancer in mice (intravenous inoculation); format: in vivo, C57Bl/6 mice
Experimental: The suspension (0.2 mL/mice, 3×10^5 tumor cell) was inoculated intravenously into the tails of fifty C57Bl/6 mice. […] The tumors, spleen and lung were removed and weighed.

[8] = Toxicity test by single dose, intravenous; format: in vivo, ICR mice
[9] = 112.5 mg·kg^−1 i.v. single dose

Excerpt for Human lung cancer H460: Through cell culture in vitro, the tumor was inoculated on nude mice, the tumor grew and passaged for the experiment use. • Animals: BALB/c nude mice, ♀, 4˜5 weeks old, were obtained from the Experimental Lab, Chinese Academy of Medical Science, Certificate NO. […] Experiment Method:
The tumor-bearing mice with good tumor growth and good general physical condition were selected and sacrificed. Tumor was isolated in a sterile condition and cut into fragments (diameter for about 2-3 mm) by surgical knife. The fragments were then hypodermically inoculated in posterior axillary of nude mice by means of a trocar.
After the tumors grew naturally for eight days, the average volume of tumors reaches 130 mm^3. The length and width of tumor was measured using vernier calipers, and divided into groups by the tumor volume.
The mice were divided into five groups for observation, each groups had eight mice. […] Respective drug was administrated for each group from the grouping day.
The experiment was terminated 24 hours after the last administration.
During the experimentation, the tumors sizes (length and width) and body weights of mice were measured once every three days. The tumor volume (TV) and relative tumor volume (RTV) were calculated according to the method for references, and the tumor volume growth tendency chart was plotted.
At the end of the experiment, the mice were sacrificed. Tumors were removed and weighed, and the inhibition rate of the tumor growth by drugs was calculated. Statistical significance of the tumor weight, tumor volume and RTV level were evaluated by t-test.
[formula] • (C, average tumor weight of control group; T, average tumor weight of administrated group) • Tumor Volume (TV)=length×width^2/2. • Relative Tumor Volume (RTV) formula: Vt/Vo • (Vo is the volume of TV at the beginning of the grouping, and Vt is the volume of TV at measure time) • Anti-tumor activities were evaluated by Tumor Relative proliferation Rate T/C (%)
[formula] • Therapeutic effect evaluation standard: T/C (%)>40, was judged as invalid; • T/C (%)≦40, and through statistical evaluation P<0.05, was judged as valid.

## CC(=O)O[C@H]1C(=O)[C@@]2(C)[C@H]([C@H](OC(=O)c3ccccc3)[C@]3(O)C[C@H](OC(=O)[C@H](OC(=O)CCC(=O)NCCCCC(NC(=O)CC[C@H](NC(=O)C(C)NC(=O)/C=C/c4ccc(Cl)cc4)C(N)=O)C(N)=O)[C@@H](NC(=O)c4ccccc4)c4ccccc4)C(C)=C1C3(C)C)[C@]1(OC(C)=O)CO[C@@H]1C[C@@H]2O (some centres unmarked) [MTC-220]
[1]
  50% growth inhibition (GI50) activity: in the same magnitude range as paclitaxel
[2]; 30 mg/kg × 12, i.p.
  Body weight Beginning: 20.8 ± 1.14 g
  Body weight End: 23.3 ± 1.22 g
  RTV: 0**
  T/C: 0%
  TGI: 100%
  Tumor volume Beginning: 142 ± 73.5 mm^3
  Tumor volume End: 0 mm^3
  Tumor weight: 0** g
[2]; 30 mg/kg/day, 10 administrations, then withdrawal
  Tumor observation (in words): disappeared one after another; also recorded: disappeared after successive administration for 10 times
Human lung cancer A549; 30 mg/kg × 12, i.p.
  Body weight Beginning: 25.2 ± 1.31 g
  Body weight End: 26.3 ± 1.51 g
  RTV: 0.67 ± 0.411
  Tumor volume Beginning: 95 ± 27.7 mm^3
  Tumor volume End: 74 ± 55.2 mm^3
  Tumor weight: 0.062 ± 0.041 g
Human lung cancer A549; 30 mg/kg/day, after drug withdrawal
  Death: one mouse died one week after drug withdrawal
Human lung cancer A549; 30 mg/kg/day, during the administration
  Tumor observation (in words): became smaller and smaller, but didn't disappear
Human lung cancer H1975
  Body weight Beginning: 24.1 ± 1.20 g
  Body weight End: 26.6 ± 0.76 g
  RTV: 0.66 ± 0.464
  Tumor volume Beginning: 135 ± 50.6 mm^3
  Tumor volume End: 127 ± 106.1 mm^3
  Tumor weight: 0.13 ± 0.103 g
Human breast cancer MX-1
  Inhibition of tumor growth (in words): weak
[3]
  Inhibition of tumor growth (in words): at certain degree, but didn't attain the valid standard
[4]
  Inhibition of tumor growth (in words): at certain degree, but didn't attain the valid standard
[5]; 2.5 mg/kg i.p. once daily
  Lung weight: 153 ± 18 mg
[5]; 5.0 mg/kg i.p. once daily
  Lung weight: 160 ± 15 mg
[5]; 2.5, 5, 10 mg/kg i.p. once daily
  Toxic and side effects: no toxic and side effects
[5]; 2.5, 5, 10 mg/kg, p<0.01, dose dependent
  Lung metastasis nodule numbers compared to vehicle control (in words): significantly decreased
Lewis lung cancer [6]
  Lung weight: 152 ± 37 mg
  Toxic and side effect: no toxic and side effect
Lewis lung cancer [7]; 2.5 mg/kg i.p.
  Body weight: 19.0 ± 1.9 g
  Lung weight: 334 ± 217 mg
Lewis lung cancer [7]; 5 mg/kg i.p.
  Body weight: 18.4 ± 2.3 g
  Lung weight: 492 ± 353 mg
Lewis lung cancer [7]; 10 mg/kg i.p.
  Lung weight: 393 ± 326 mg
Lewis lung cancer [7]; 2.5, 5, 10 mg/kg, dose dependent
  Lung metastasis nodule number compared to vehicle control (in words): significantly decreased
[8]; [9]
  Anatomical examination of organs: no sign of abnormal changes
  Body weight compared with control group: not significantly different
  Symptoms after injection: voluntary activities of mice in administered group were reduced, some mice showed jumping symptoms
  Time to recovery from symptoms: about 10 min
[8]; 112.5 mg·kg^−1 i.v. single dose, 14 days observation
  Death: no death occured
[8]; mouse, in vivo, 112.5 mg·kg^−1, single intravenous injection, ICR mice
  MTD at 14 days: > 112 mg/kg
Human lung cancer H460; 5 mg/kg × 25, i.p.
  Body weight Beginning: 18.0 ± 0.95 g
  Body weight End: 21.9 ± 1.10 g
  RTV: 32.0 ± 8.27
  T/C: 96.2%
  TGI: 2.15%
  Tumor volume Beginning: 125 ± 36.8 mm^3
  Tumor volume End: 3737 ± 591.0 mm^3
  Tumor weight: 2.91 ± 0.695 g
Human lung cancer H460; 5 mg/kg, 25 days successive administration
  Growth rate of tumor volume compared to negative control: not significantly different
Human lung cancer H460; 10 mg/kg × 25, i.p.
  Body weight Beginning: 18.2 ± 0.70 g
  Body weight End: 21.4 ± 1.15 g
  RTV: 27.7 ± 6.81
  T/C: 83.1%
  TGI: 17.3%
  Tumor volume Beginning: 125 ± 43.0 mm^3
  Tumor volume End: 3274 ± 797.0 mm^3
  Tumor weight: 2.46 ± 0.624 g
Human lung cancer H460; 10 mg/kg, end of the experiment
  Tumor volume inhibition: 18.8%
Human lung cancer H460; 20 mg/kg × 25, i.p.
  Body weight Beginning: 17.8 ± 1.10 g
  Body weight End: 18.9 ± 2.49 g
  RTV: 16.7 ± 9.93
  T/C: 50.1%
  TGI: 52.9%
  Tumor volume Beginning: 123 ± 44.6 mm^3
  Tumor volume End: 1963 ± 641.9 mm^3
  Tumor weight: 1.40 ± 0.466 g

Reference: patent US9085605B2, “Chemical synthesis and anti-tumor and anti-metastatic effects of dual functional conjugate” (Shenzhen Salubris Pharmaceuticals Co., Ltd., priority 2010, dated 2015)
